Data published in US20170334899A1, “AMINO-SUBSTITUTED ISOTHIAZOLES” (Bayer Pharma Aktiengesellschaft, priority 2014, published 2017).
Where “and” joins values, the source holds several entries; their conditions need not be identical. Equal values may be shown once.

Columns and labels:
[1] = target: T1, catalytic domain of human Bub1 (amino acids 704-1085) (Homo sapiens, UniProt O43683); experiment: Bub1 kinase assay (TR-FRET); assay type: biochemical; settings: 10 μM ATP, avg, read-out: Bub1 avg (IC50 [mol/l])
T1 construct: catalytic domain of human Bub1 (amino acids 704-1085); His6 (N); made in house; host or cells: insect cells (Hi5)
T1 sequence (O43683 704-1085): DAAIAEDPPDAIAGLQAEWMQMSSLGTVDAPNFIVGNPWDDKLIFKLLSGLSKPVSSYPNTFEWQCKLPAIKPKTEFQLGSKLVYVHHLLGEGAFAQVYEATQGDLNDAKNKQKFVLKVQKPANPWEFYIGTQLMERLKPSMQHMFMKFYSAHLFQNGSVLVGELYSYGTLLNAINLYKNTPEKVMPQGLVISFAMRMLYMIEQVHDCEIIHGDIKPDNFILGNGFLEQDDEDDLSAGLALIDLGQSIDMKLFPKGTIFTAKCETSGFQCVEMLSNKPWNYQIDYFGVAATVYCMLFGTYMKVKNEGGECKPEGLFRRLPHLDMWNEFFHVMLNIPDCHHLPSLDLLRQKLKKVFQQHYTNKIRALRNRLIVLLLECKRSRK
Outline: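 Readout is the 665/620 nm TR-FRET ratio from anti-phosphoserine antibody, Eu-labelled anti-mouse IgG and streptavidin-XL665, scaled between no-enzyme and uninhibited controls. Reaction: 1 μM biotinylated peptide, 10 μM ATP, 60 min, 22 °C, after 15 min compound preincubation with His6-Bub1 (704-1085, insect-expressed, ~200 ng/ml).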

CDK2/CycE = target: T2, CDK2/CycE (Homo sapiens, UniProt P24941); experiment: CDK2/CycE kinase assay (TR-FRET); assay type: biochemical; settings: avg, read-out: CDK2 avg (IC50 [mol/l])
T2 construct: GST; purchased ProQinase GmbH (Freiburg, Germany); host or cells: insect cells (Sf9)
Outline: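 GST-tagged human CDK2 and CycE from Sf9 cells, preincubated 15 min with compound, then 25 min at 22° C. with 10 μM ATP and 0.75 μM biotinylated Rb-derived peptide (final). Phospho-substrate read by TR-FRET (anti-pRB pSer807/pSer811, Eu anti-mouse IgG, streptavidin-XL665), 665/620 nm ratio, normalised to no-inhibitor and no-enzyme controls.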

Row | SMILES | IC50 [1] | IC50 (CDK2/CycE)
1 | Cc1nsc(Nc2cnc3ccccc3n2)c1C(=O)Nc1ccc(C(N)=O)c(F)c1 [Example 201, N-(4-carbamoyl-3-fluorophenyl)-3-methyl-5-(quinoxalin-2-ylamino)-1,2-thiazole-4-carboxamide] | > 20 µM | > 20 µM
2 | Cc1nsc(Nc2cnc3ccccc3n2)c1C(=O)Nc1ccccc1S(C)(=O)=O [Example 188, 3-methyl-N-[2-(methylsulfonyl)phenyl]-5-(quinoxalin-2-ylamino)-1,2-thiazole-4-carboxamide] | > 20 µM | > 20 µM
3 | Cc1nsc(Nc2ccc(C#N)cn2)c1C(=O)Nc1cccc(C(=O)OC(C)(C)C)c1 [Example 240, tert-butyl 3-[({5-[(5-cyanopyridin-2-yl)amino]-3-methyl-1,2-thiazol-4-yl}carbonyl)amino]benzoate] | > 20 µM | > 20 µM
4 | Cc1nsc(Nc2cncc(C(F)(F)F)n2)c1C(=O)Nc1ccc(C(=O)NCCN2CCCC(F)(F)C2)cc1 [Example 214, N-(4-{[2-(3,3-difluoropiperidin-1-yl)ethyl]carbamoyl}phenyl)-3-methyl-5-{[6-(trifluoromethyl)pyrazin-2-yl]amino}-1,2-thiazole-4-carboxamide] | > 20 µM | –
5 | Cc1nsc(Nc2cncc(C(F)(F)F)n2)c1C(=O)Nc1ccc(OC2CCN(CC(F)(F)F)CC2)nc1 [Example 16, 3-Methyl-N-(6-{[1-(2,2,2-trifluoroethyl)piperidin-4-yl]oxy}pyridin-3-yl)-5-{[6-(trifluoromethyl)pyrazin-2-yl]amino}-1,2-thiazole-4-carboxamide] | ≥ 20 µM | ≥ 20 µM
6 | Cc1nsc(Nc2cnc(C(F)(F)F)cn2)c1C(=O)Nc1ccc(OC2CCN(C)CC2)nc1 [Example 220, 3-methyl-N-{6-[(1-methylpiperidin-4-yl)oxy]pyridin-3-yl}-5-{[5-(trifluoromethyl)pyrazin-2-yl]amino}-1,2-thiazole-4-carboxamide] | > 20 µM | > 20 µM
7 | Cc1nsc(Nc2cncc(C(F)(F)F)n2)c1C(=O)Nc1ccc(F)c(C(N)=O)c1 [Example 204, N-(3-carbamoyl-4-fluorophenyl)-3-methyl-5-{[6-(trifluoromethyl)pyrazin-2-yl]amino}-1,2-thiazole-4-carboxamide] | > 20 µM and 16 µM | > 20 µM
8 | Cc1nsc(Nc2cnc3ccccc3n2)c1C(=O)Nc1ccc(NCC2CCN(C(=O)OC(C)(C)C)CC2)nc1 [Example 238, tert-butyl 4-({[5-({[3-methyl-5-(quinoxalin-2-ylamino)-1,2-thiazol-4-yl]carbonyl}amino)pyridin-2-yl]amino}methyl)piperidine-1-carboxylate] | > 20 µM | > 20 µM
9 | Cc1nsc(Nc2cncc(C(F)(F)F)n2)c1C(=O)Nc1ccc(OC2CCN(C)CC2)nc1 [Example 219, 3-methyl-N-{6-[(1-methylpiperidin-4-yl)oxy]pyridin-3-yl}-5-{[6-(trifluoromethyl)pyrazin-2-yl]amino}-1,2-thiazole-4-carboxamide] | > 20 µM | > 20 µM
10 | Cc1nsc(Nc2cnc(C(F)(F)F)cn2)c1C(=O)Nc1ccc(OCCNC(=O)OC(C)(C)C)nc1 [Example 192, tert-butyl {2-[(5-{[(3-methyl-5-{[5-(trifluoromethyl)pyrazin-2-yl]amino}-1,2-thiazol-4-yl)carbonyl]amino}pyridin-2-yl)oxy]ethyl}carbamate] | > 20 µM | > 20 µM
11 | Cc1nsc(Nc2cnc(C(F)(F)F)cn2)c1C(=O)Nc1ccc(F)c(OC2CCN(C(=O)OC(C)(C)C)CC2)c1 [Example 229, tert-butyl 4-(2-fluoro-5-{[(3-methyl-5-{[5-(trifluoromethyl)pyrazin-2-yl]amino}-1,2-thiazol-4-yl)carbonyl]amino}phenoxy)piperidine-1-carboxylate] | > 20 µM | > 20 µM
12 | Cc1nsc(Nc2cnc(C(F)(F)F)cn2)c1C(=O)Nc1ccc(OCC2CCN(C(=O)OC(C)(C)C)CC2)nc1 [Example 227, tert-butyl 4-{[(5-{[(3-methyl-5-{[5-(trifluoromethyl)pyrazin-2-yl]amino}-1,2-thiazol-4-yl)carbonyl]amino}pyridin-2-yl)oxy]methyl}piperidine-1-carboxylate] | > 20 µM | > 20 µM
13 | Cc1nsc(Nc2cnc(C(F)(F)F)cn2)c1C(=O)Nc1cccc(S(C)(=O)=O)c1 [Example 195, 3-methyl-N-[3-(methylsulfonyl)phenyl]-5-{[5-(trifluoromethyl)pyrazin-2-yl]amino}-1,2-thiazole-4-carboxamide] | – | > 20 µM
14 | Cc1nsc(Nc2cnc(C(F)(F)F)cn2)c1C(=O)Nc1ccc(OCCN)nc1 [Example 197, N-[6-(2-aminoethoxy)pyridin-3-yl]-3-methyl-5-{[5-(trifluoromethyl)pyrazin-2-yl]amino}-1,2-thiazole-4-carboxamide] | 9.1 µM | > 20 µM

Next, values leading:

Row | IC50 [1] | IC50 (CDK2/CycE) | SMILES
15 | > 20 µM | > 20 µM | Cc1nsc(Nc2cncc(C(F)(F)F)n2)c1C(=O)Nc1ccc(OCCNC(=O)OC(C)(C)C)c(F)c1 [Example 216, tert-butyl [2-(2-fluoro-4-{[(3-methyl-5-{[6-(trifluoromethyl)pyrazin-2-yl]amino}-1,2-thiazol-4-yl)carbonyl]amino}phenoxy)ethyl]carbamate]
16 | > 20 µM | > 20 µM | Cc1nsc(Nc2cnc3ccccc3n2)c1C(=O)Nc1ccc(Oc2cccnc2)nc1 [Example 231, 3-methyl-N-[6-(pyridin-3-yloxy)pyridin-3-yl]-5-(quinoxalin-2-ylamino)-1,2-thiazole-4-carboxamide]
17 | > 20 µM | > 20 µM | Cc1nsc(Nc2cc(C#N)ccn2)c1C(=O)Nc1ccc(Oc2cccc(C(F)(F)F)c2)nc1 [Example 230, 5-[(4-cyanopyridin-2-yl)amino]-3-methyl-N-{6-[3-(trifluoromethyl)phenoxy]pyridin-3-yl}-1,2-thiazole-4-carboxamide]
18 | > 20 µM | > 20 µM | CNC(=O)c1ccc(NC(=O)c2c(C)nsc2Nc2cnc3ccccc3n2)cc1F [Example 207, N-[3-fluoro-4-(methylcarbamoyl)phenyl]-3-methyl-5-(quinoxalin-2-ylamino)-1,2-thiazole-4-carboxamide]
19 | > 20 µM | > 20 µM | Cc1nsc(Nc2cnc3ccccc3n2)c1C(=O)Nc1ccc(Oc2ccc(SC(F)(F)F)cc2)nc1 [Example 233, 3-methyl-5-(quinoxalin-2-ylamino)-N-(6-{4-[(trifluoromethyl)sulfanyl]phenoxy}pyridin-3-yl)-1,2-thiazole-4-carboxamide]
20 | > 20 µM | > 20 µM | Cc1nsc(Nc2ccc(C#N)cn2)c1C(=O)Nc1ccc(F)c(C(N)=O)c1 [Example 203, N-(3-carbamoyl-4-fluorophenyl)-5-[(5-cyanopyridin-2-yl)amino]-3-methyl-1,2-thiazole-4-carboxamide]
21 | > 20 µM | > 20 µM | Cc1nsc(Nc2cnc3ccccc3n2)c1C(=O)Nc1ccc(NCCC(=O)OC(C)(C)C)nc1 [Example 236, tert-butyl N-[5-({[3-methyl-5-(quinoxalin-2-ylamino)-1,2-thiazol-4-yl]carbonyl}amino)pyridin-2-yl]-beta-alaninate]
22 | ≥ 20 µM | ≥ 20 µM | Cc1nsc(Nc2cncc(C(F)(F)F)n2)c1C(=O)Nc1ccc(OC2CCNCC2)nc1 [Example 13, 3-Methyl-N-[6-(piperidin-4-yloxy)pyridin-3-yl]-5-{[6-(trifluoromethyl)pyrazin-2-yl]-amino}-1,2-thiazole-4-carboxamide]
23 | > 20 µM | 12 µM | Cc1nsc(Nc2cncc(C(F)(F)F)n2)c1C(=O)Nc1ccc(C(=O)OC(C)(C)C)cc1 [Example 193, tert-butyl tert-butyl 4-{[(3-methyl-5-{[6-(trifluoromethyl)pyrazin-2-yl]amino}-1,2-thiazol-4-yl)carbonyl]amino}benzoate]
24 | > 20 µM | > 20 µM | Cc1nsc(Nc2ccc(C#N)cn2)c1C(=O)Nc1cccc(N)c1 [Example 180, N-(3-aminophenyl)-5-[(5-cyanopyridin-2-yl)amino]-3-methyl-1,2-thiazole-4-carboxamide]
25 | – | > 20 µM | Cc1nsc(Nc2cc(C#N)ccn2)c1C(=O)Nc1cccc(C(=O)NC2CC2)c1 [Example 175, 5-[(4-cyanopyridin-2-yl)amino]-N-[3-(cyclopropylcarbamoyl)phenyl]-3-methyl-1,2-thiazole-4-carboxamide]
26 | > 20 µM | > 20 µM | COc1ccc(NC(=O)c2c(C)nsc2Nc2cnc3ccccc3n2)c(CC#N)n1 [Example 235, N-[2-(cyanomethyl)-6-methoxypyridin-3-yl]-3-methyl-5-(quinoxalin-2-ylamino)-1,2-thiazole-4-carboxamide]
27 | > 20 µM | > 20 µM | Cc1nsc(Nc2cnc3ccccc3n2)c1C(=O)Nc1cccc(NC(=O)OC(C)(C)C)c1 [Example 178, tert-butyl [3-({[3-methyl-5-(quinoxalin-2-ylamino)-1,2-thiazol-4-yl]carbonyl}amino)-phenyl]carbamate]
28 | ≥ 20 µM | 13 µM | Cc1nsc(Nc2cncc(C(F)(F)F)n2)c1C(=O)Nc1ccc(OC2CCN(CCF)CC2)nc1 [Example 14, N-(6-{[1-(2-Fluoroethyl)piperidin-4-yl]oxy}pyridin-3-yl)-3-methyl-5-{[6-(trifluoro-methyl)pyrazin-2-yl]amino}-1,2-thiazole-4-carboxamide]
